Test results: US10988524B2, “Modified relaxin B chain peptides and their therapeutic use” (priority 2018, dated 2021)
Non-standard residues stand in square brackets, D forms with d. Residues, ends and D or L forms follow the SMILES beside them. 1Nal = N[C@@H](Cc1cccc2ccccc12)C(=O)O; αMeS = C[C@](N)(CO)C(=O)O; Nle = CCCC[C@H](N)C(=O)O; Aib = CC(C)(N)C(=O)O

molecular target: T1, RXFP1 (Homo sapiens, UniProt Q9HBX9); test: OVCAR5 cAMP assay (RXFP1 agonist activity, HTRF); settings: OVCAR-5, read-out: cAMP assay in OVCAR 5 cells Emax, maximal intracellular cAMP relative to H2-relaxin in the same test occasion
T1 sequence (Q9HBX9 1-757): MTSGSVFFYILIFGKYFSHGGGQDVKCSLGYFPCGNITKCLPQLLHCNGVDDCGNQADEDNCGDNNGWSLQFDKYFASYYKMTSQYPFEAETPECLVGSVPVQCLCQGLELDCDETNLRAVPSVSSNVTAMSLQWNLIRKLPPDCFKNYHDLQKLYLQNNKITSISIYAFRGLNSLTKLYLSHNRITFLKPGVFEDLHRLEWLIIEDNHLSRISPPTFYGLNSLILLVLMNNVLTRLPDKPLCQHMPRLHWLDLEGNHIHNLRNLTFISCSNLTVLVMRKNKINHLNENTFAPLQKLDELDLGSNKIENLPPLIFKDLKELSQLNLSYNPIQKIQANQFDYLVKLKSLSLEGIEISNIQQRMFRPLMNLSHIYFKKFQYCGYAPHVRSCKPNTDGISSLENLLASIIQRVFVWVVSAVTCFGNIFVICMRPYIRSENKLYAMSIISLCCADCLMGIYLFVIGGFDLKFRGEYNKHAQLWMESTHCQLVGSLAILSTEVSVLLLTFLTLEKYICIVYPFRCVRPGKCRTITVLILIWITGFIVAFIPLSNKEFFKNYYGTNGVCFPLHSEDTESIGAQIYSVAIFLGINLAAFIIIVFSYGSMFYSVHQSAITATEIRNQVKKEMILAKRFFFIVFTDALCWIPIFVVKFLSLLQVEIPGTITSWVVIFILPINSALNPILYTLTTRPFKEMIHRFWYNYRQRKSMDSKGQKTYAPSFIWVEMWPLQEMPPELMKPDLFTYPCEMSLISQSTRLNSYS

Row | Compound | Emax [%]
1 | CCCC[C@H](NC(=O)CNC(=O)[C@H](CCC(=O)O)NC(=O)C(C)(C)NC(=O)C(C)(C)NC(=O)[C@@H](NC(=O)[C@H](CCCCNC(C)=O)NC(=O)[C@H](C)NC(=O)[C@H](CCCNC(=N)N)NC(=O)[C@@H](NC(=O)[C@H](CCCCN)NC(=O)[C@H](CCC(=O)O)NC(=O)[C@H](CCCNC(=N)N)NC(=O)CNC(=O)[C@H](CCC(=O)O)NC(=O)[C@H](CC(C)C)NC(C)=O)C(C)C)[C@@H](C)CC)C(=O)N[C@@H](CO)C(=O)N[C@H](C(=O)N[C@@H](Cc1c[nH]c2ccccc12)C(=O)N[C@@H](CO)C(=O)NC(C)(C)C(=O)N[C@@H](CCCNC(=N)N)C(=O)N[C@@H](CCCCN)C(=O)N[C@@H](CC(C)C)C(N)=O)[C@@H](C)O [compound 32] (Ac-LEGREKVRAK(Ac)I[Aib][Aib]EG[Nle]STWS[Aib]RKL-NH2) | 95
2 | CCCC[C@H](NC(=O)CNC(=O)[C@H](CCC(=O)O)NC(=O)C(C)(C)NC(=O)C(C)(C)NC(=O)[C@@H](NC(=O)[C@H](CCC(N)=O)NC(=O)[C@H](CCCCNC(C)=O)NC(=O)[C@H](CCCNC(=N)N)NC(=O)[C@@H](NC(=O)[C@H](CCCCN)NC(=O)[C@H](CCC(=O)O)NC(=O)[C@H](CCCNC(=N)N)NC(=O)CNC(=O)[C@H](CCC(=O)O)NC(=O)[C@H](CC(C)C)NC(C)=O)C(C)C)[C@@H](C)CC)C(=O)N[C@@H](CO)C(=O)N[C@H](C(=O)N[C@@H](Cc1c[nH]c2ccccc12)C(=O)N[C@@H](CO)C(=O)NC(C)(C)C(=O)N[C@@H](CCCNC(=N)N)C(=O)N[C@@H](CCCCN)C(=O)N[C@@H](CCCCN)C(N)=O)[C@@H](C)O [compound 33] (Ac-LEGREKVRK(Ac)QI[Aib][Aib]EG[Nle]STWS[Aib]RKK-NH2) | 105
3 | CCCC[C@H](NC(=O)CNC(=O)[C@H](CCC(=O)O)NC(=O)C(C)(C)NC(=O)C(C)(C)NC(=O)[C@@H](NC(=O)C(C)(C)NC(=O)[C@H](CCCCNC(C)=O)NC(=O)[C@H](CCCNC(=N)N)NC(=O)[C@@H](NC(=O)[C@H](CCCCN)NC(=O)[C@H](CCC(=O)O)NC(=O)[C@H](CCCNC(=N)N)NC(=O)CNC(=O)[C@H](CCC(=O)O)NC(=O)[C@H](CC(C)C)NC(C)=O)C(C)C)[C@@H](C)CC)C(=O)N[C@@H](CO)C(=O)N[C@H](C(=O)N[C@@H](Cc1c[nH]c2ccccc12)C(=O)N[C@@H](CO)C(=O)NC(C)(C)C(=O)N[C@@H](CCCNC(=N)N)C(=O)N[C@@H](CCCCN)C(=O)N[C@@H](CCCCN)C(N)=O)[C@@H](C)O [compound 34] (Ac-LEGREKVRK(Ac)[Aib]I[Aib][Aib]EG[Nle]STWS[Aib]RKK-NH2) | 96
4 | CC[C@H](C)[C@H](NC(=O)[C@H](CCC(N)=O)NC(=O)[C@H](C)NC(=O)[C@H](CCCNC(=N)N)NC(=O)[C@@H](NC(=O)[C@H](CCCCN)NC(=O)[C@H](CCC(=O)O)NC(=O)[C@H](CCCNC(=N)N)NC(=O)CNC(=O)[C@H](CCC(=O)O)NC(=O)[C@H](CC(C)C)NC(C)=O)C(C)C)C(=O)NC(C)(C)C(=O)NC(C)(C)C(=O)N[C@@H](CCC(=O)O)C(=O)NCC(=O)N[C@@H](CCC(N)=O)C(=O)N[C@@H](CO)C(=O)N[C@H](C(=O)N[C@@H](Cc1c[nH]c2ccccc12)C(=O)N[C@@H](CO)C(=O)NC(C)(C)C(=O)N[C@@H](CCCNC(=N)N)C(=O)N[C@@H](CCCCN)C(=O)N[C@@H](CCCCN)C(N)=O)[C@@H](C)O [compound 35] (Ac-LEGREKVRAQI[Aib][Aib]EGQSTWS[Aib]RKK-NH2) | 98
5 | CCCC[C@H](NC(=O)CNC(=O)[C@H](CCC(=O)O)NC(=O)C(C)(C)NC(=O)C(C)(C)NC(=O)[C@@H](NC(=O)[C@H](CCC(N)=O)NC(=O)[C@H](C)NC(=O)[C@H](CCCNC(=N)N)NC(=O)[C@@H](NC(=O)[C@H](CCCCN)NC(=O)[C@H](CCC(=O)O)NC(=O)[C@H](CCCNC(=N)N)NC(=O)CNC(=O)[C@H](CCC(=O)O)NC(=O)[C@H](CC(C)C)NC(C)=O)C(C)C)[C@@H](C)CC)C(=O)N[C@@H](CO)C(=O)N[C@@H](CCCCN)C(=O)N[C@@H](Cc1cccc2ccccc12)C(=O)N[C@@H](CO)C(=O)N[C@@H](CCCCN)C(=O)N[C@@H](CCCNC(=N)N)C(N)=O [compound 36] (Ac-LEGREKVRAQI[Aib][Aib]EG[Nle]SK[1Nal]SKR-NH2) | 103
6 | CCCC[C@H](NC(=O)CNC(=O)[C@H](CCC(=O)O)NC(=O)C(C)(C)NC(=O)C(C)(C)NC(=O)[C@@H](NC(=O)[C@H](CCC(N)=O)NC(=O)[C@H](C)NC(=O)[C@H](CCCNC(=N)N)NC(=O)[C@@H](NC(=O)[C@H](CCCCN)NC(=O)[C@H](CCC(=O)O)NC(=O)[C@H](CCCNC(=N)N)NC(=O)CNC(=O)[C@H](CCC(=O)O)NC(=O)[C@H](CC(C)C)NC(C)=O)C(C)C)[C@@H](C)CC)C(=O)N[C@@H](CO)C(=O)N[C@H](C(=O)N[C@@H](Cc1cccc2ccccc12)C(=O)N[C@@H](CO)C(=O)N[C@@H](CCCCN)C(=O)N[C@@H](CCCNC(=N)N)C(N)=O)[C@@H](C)O [compound 37] (Ac-LEGREKVRAQI[Aib][Aib]EG[Nle]ST[1Nal]SKR-NH2) | 104
7 | CC[C@H](C)[C@H](NC(=O)[C@H](CCC(N)=O)NC(=O)[C@H](C)NC(=O)[C@H](CCCNC(=N)N)NC(=O)[C@@H](NC(=O)[C@H](CCCCN)NC(=O)[C@H](CCC(=O)O)NC(=O)[C@H](CCCNC(=N)N)NC(=O)CNC(=O)[C@H](CCC(=O)O)NC(=O)[C@H](CC(C)C)NC(C)=O)C(C)C)C(=O)NC(C)(C)C(=O)NC(C)(C)C(=O)N[C@@H](CCC(=O)O)C(=O)NCC(=O)N[C@@H](CCSC)C(=O)N[C@@H](CO)C(=O)N[C@@H](CCCCN)C(=O)N[C@@H](Cc1c[nH]c2ccccc12)C(=O)N[C@@H](CO)C(=O)N[C@@H](CCCCN)C(=O)N[C@@H](CCCNC(=N)N)C(N)=O [compound 38] (Ac-LEGREKVRAQI[Aib][Aib]EGMSKWSKR-NH2) | 102
8 | CC[C@H](C)[C@H](NC(=O)[C@H](CCC(N)=O)NC(=O)[C@H](C)NC(=O)[C@H](CCCNC(=N)N)NC(=O)[C@@H](NC(=O)[C@H](CCCCN)NC(=O)[C@H](CCC(=O)O)NC(=O)[C@H](CCCNC(=N)N)NC(=O)CNC(=O)[C@H](CCC(=O)O)NC(=O)[C@H](CC(C)C)NC(C)=O)C(C)C)C(=O)NC(C)(C)C(=O)NC(C)(C)C(=O)N[C@@H](CCC(=O)O)C(=O)NCC(=O)N[C@@H](CCSC)C(=O)N[C@@H](CO)C(=O)N[C@@](C)(CO)C(=O)N[C@@H](Cc1c[nH]c2ccccc12)C(=O)N[C@@H](CO)C(=O)N[C@@H](CCCCN)C(=O)N[C@@H](CCCNC(=N)N)C(N)=O [compound 39] (Ac-LEGREKVRAQI[Aib][Aib]EGMS[αMeS]WSKR-NH2) | 99
9 | CC[C@H](C)[C@H](NC(=O)[C@H](CCC(N)=O)NC(=O)[C@H](C)NC(=O)[C@H](CCCNC(=N)N)NC(=O)[C@@H](NC(=O)[C@H](CCCCN)NC(=O)[C@H](CCC(=O)O)NC(=O)[C@H](CCCNC(=N)N)NC(=O)CNC(=O)[C@H](CCC(=O)O)NC(=O)[C@H](CC(C)C)NC(C)=O)C(C)C)C(=O)NC(C)(C)C(=O)NC(C)(C)C(=O)N[C@@H](CCC(=O)O)C(=O)NCC(=O)N[C@@H](CCSC)C(=O)N[C@@H](CO)C(=O)N[C@H](C(=O)N[C@@H](Cc1c[nH]c2ccccc12)C(=O)N[C@@H](CO)C(=O)N[C@@H](CCCCN)C(=O)N[C@@H](CCCNC(=N)N)C(N)=O)[C@@H](C)O [compound 40] (Ac-LEGREKVRAQI[Aib][Aib]EGMSTWSKR-NH2) | 103
10 | CC[C@H](C)[C@H](NC(=O)[C@H](CCC(N)=O)NC(=O)[C@H](C)NC(=O)[C@H](CCCNC(=N)N)NC(=O)[C@@H](NC(=O)[C@H](CCCCN)NC(=O)[C@H](CCC(=O)O)NC(=O)[C@H](CCCNC(=N)N)NC(=O)CNC(=O)[C@H](CCC(=O)O)NC(=O)[C@H](CC(C)C)NC(C)=O)C(C)C)C(=O)NC(C)(C)C(=O)NC(C)(C)C(=O)N[C@@H](CCC(=O)O)C(=O)NCC(=O)N[C@@H](CCSC)C(=O)N[C@@H](CO)C(=O)N[C@H](C(=O)N[C@@H](Cc1c[nH]c2ccccc12)C(=O)N[C@@H](CO)C(=O)NC(C)(C)C(=O)N[C@@H](CCCNC(=N)N)C(N)=O)[C@@H](C)O [compound 41] (Ac-LEGREKVRAQI[Aib][Aib]EGMSTWS[Aib]R-NH2) | 106
11 | CC[C@H](C)[C@H](NC(=O)[C@H](CCC(N)=O)NC(=O)C(C)(C)NC(=O)[C@H](CCCNC(=N)N)NC(=O)[C@@H](NC(=O)[C@H](CCCCN)NC(=O)[C@H](CCC(=O)O)NC(=O)[C@H](CCCNC(=N)N)NC(=O)CNC(=O)[C@H](CCC(=O)O)NC(=O)[C@H](CC(C)C)NC(C)=O)C(C)C)C(=O)NC(C)(C)C(=O)NC(C)(C)C(=O)N[C@@H](CCC(=O)O)C(=O)NCC(=O)N[C@@H](CCSC)C(=O)N[C@@H](CO)C(=O)N[C@H](C(=O)N[C@@H](Cc1c[nH]c2ccccc12)C(=O)N[C@@H](CO)C(=O)NC(C)(C)C(=O)N[C@@H](CCCNC(=N)N)C(N)=O)[C@@H](C)O [compound 42] (Ac-LEGREKVR[Aib]QI[Aib][Aib]EGMSTWS[Aib]R-NH2) | 104

same assay, conditions: cAMP assay in OVCAR 5 cells EC50 (nM), OVCAR5 cells expressing endogenous RXFP1; cAMP by HTRF; 30 min at 37° C.; 1 mM IBMX

Row | Compound | EC50 [nM]
12 | CC[C@H](C)[C@H](NC(=O)[C@H](CCC(N)=O)NC(=O)[C@H](C)NC(=O)[C@H](CCCNC(=N)N)NC(=O)[C@@H](NC(=O)[C@H](CCCCN)NC(=O)[C@H](CCC(=O)O)NC(=O)[C@H](CCCNC(=N)N)NC(=O)CNC(=O)[C@H](CCC(=O)O)NC(=O)[C@H](CC(C)C)NC(C)=O)C(C)C)C(=O)NC(C)(C)C(=O)NC(C)(C)C(=O)N[C@@H](CCC(=O)O)C(=O)NCC(=O)N[C@@H](CCSC)C(=O)N[C@@H](CO)C(=O)N[C@@](C)(CO)C(=O)N[C@@H](Cc1c[nH]c2ccccc12)C(=O)N[C@@H](CO)C(=O)N[C@@H](CCCCN)C(=O)N[C@@H](CCCNC(=N)N)C(N)=O [compound 39] (Ac-LEGREKVRAQI[Aib][Aib]EGMS[αMeS]WSKR-NH2) | 9.5
13 | CC[C@H](C)[C@H](NC(=O)[C@H](CCC(N)=O)NC(=O)C(C)(C)NC(=O)[C@H](CCCNC(=N)N)NC(=O)[C@@H](NC(=O)[C@H](CCCCN)NC(=O)[C@H](CCC(=O)O)NC(=O)[C@H](CCCNC(=N)N)NC(=O)CNC(=O)[C@H](CCC(=O)O)NC(=O)[C@H](CC(C)C)NC(C)=O)C(C)C)C(=O)NC(C)(C)C(=O)NC(C)(C)C(=O)N[C@@H](CCC(=O)O)C(=O)NCC(=O)N[C@@H](CCSC)C(=O)N[C@@H](CO)C(=O)N[C@H](C(=O)N[C@@H](Cc1c[nH]c2ccccc12)C(=O)N[C@@H](CO)C(=O)NC(C)(C)C(=O)N[C@@H](CCCNC(=N)N)C(N)=O)[C@@H](C)O [compound 42] (Ac-LEGREKVR[Aib]QI[Aib][Aib]EGMSTWS[Aib]R-NH2) | 251
